Here are results for one molecule from patent publication US20170240592A1, “GADD45BETA/MKK7 INHIBITOR FOR THE TREATMENT OF A RESISTANT HAEMATOLOGICAL MALIGNANCY” (IMPERIAL INNOVATIONS LIMITED, priority 2014, published 2017).

The target in data set [1] is T1, Gadd45β/MKK7 complex (Homo sapiens, UniProt O14733).
T1 construct: expressed in transfected cells; host or cells: human HEK-293T
T1 sequence (O14733 1-419): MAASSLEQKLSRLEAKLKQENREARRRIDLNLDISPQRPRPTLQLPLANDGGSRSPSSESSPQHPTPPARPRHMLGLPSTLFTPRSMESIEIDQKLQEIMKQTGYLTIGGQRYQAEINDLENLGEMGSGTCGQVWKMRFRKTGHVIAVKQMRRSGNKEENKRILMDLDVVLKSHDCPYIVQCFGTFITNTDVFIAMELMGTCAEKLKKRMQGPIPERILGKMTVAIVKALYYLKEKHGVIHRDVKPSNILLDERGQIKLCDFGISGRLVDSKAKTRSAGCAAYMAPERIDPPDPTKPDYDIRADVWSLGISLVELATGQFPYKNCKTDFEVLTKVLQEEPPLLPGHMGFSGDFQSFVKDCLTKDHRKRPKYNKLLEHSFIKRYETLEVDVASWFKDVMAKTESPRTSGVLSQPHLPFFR
Description: co-immunoprecipitation assay. Type of data set: binding. The settings on record: anti-FLAG immunoprecipitates, HEK-293T lysates. As for the experimental part:
Values express the percentage of live cells present in the treated cultures relative to the live cells present in the respective untreated cultures and denote means±SD ([WM]; n=3). UT, untreated. […] Values express the percentage of inhibition of Gadd45β binding to MKK7 relative to the binding measured in the absence of peptide. […] Co-immunoprecipitations (IP) were performed using an anti-FLAG antibody (a-FLAG); western blots (WB) were developed using an anti-HA or an anti-MKK7 antibody, as shown.
Co-immunoprecipitation assays were performed as described previously (Papa et al., 2004). Briefly, human HEK-293T cells were seeded at a density of 1.8-2.2×10^6 cells/dish in […] tissue-culture dishes and then transfected with pcDNA-FLAG-hMKK7 and pcDNA-HA-hGADD45β by using the calcium phosphate precipitation method (Papa et al., 2004). 48 hr after transfection, cells were washed with PBS and then lysed in lysis buffer supplemented with protease inhibitors (1 mM phenylmethylsulfonylfluoride, 10 μM chymostatin, 2 μg/mL aprotinin, 2 μg/mL leupeptin; Roche) for 30 min in ice. Cell lysates were cleared by centrifugation at 45,000×g for 40 min and then used for co-immunoprecipitations with anti-FLAG M2 Affinity Gel (Sigma-Aldrich), binding to FLAG-tagged MKK7. Western blots were developed using an anti-HA (binding to HA-hGADD45β) or an anti-MKK7 antibody. […]

Data set [2] is described as follows: plasma stability (human). Type of data set: in vitro ADME.
Description: In vitro pharmacokinetic assays were performed according to established, in-house protocols and included: plasma stability (human), thermodynamic solubility (PBS pH 7.4, at 37° C. for 14 days), microsomal stability (human), plasma protein binding (PPB; mouse and human), and distribution coefficient (Log D). In vivo pharmacokinetic analyses were also performed at Cyprotex according to established, in-house protocols. Briefly, the peptides were dissolved in PBS and administered by single intravenous injection to CD1 male mice at the dose of 10 mg/kg (25-30 g of total body weight; n=3 mice per time point per compound). Blood samples were collected in heparinized tubes at up to 7 time points after this injection (i.e. 0.08, 0.25, 0.5, 1, 2, 4 and 8 hr), and the plasma concentrations of the test peptide were determined at each time point by LC-MS/MS, using a five-point standard curve covering a peptide concentration range from 3 to 3,000 ng/mL. Standard curves were prepared using blank plasma matrices and treated in the same manner as the test samples. […] Values were calculated from the data of the peptide plasma concentration versus time curves using a non-compartmental model analysis, as described elsewhere (Groulx, 2006; Landaw and Di Stefano 3rd, 1982). […]

Turning to `CC(=O)N[C@H](Cc1ccc(O)cc1)C(=O)N[C@H](CCCNC(=N)N)C(=O)N[C@H](Cc1ccccc1)C(N)=O` [DTP3, Acetyl-Tyr-Arg-Phe-NH2], in data set [1], the “disruption of the Gadd45β/MKK7 complex” value was “disruption of the Gadd45β/MKK7 complex”. Moreover, in data set [2], the “stability in human serum” value is “very high stability”.
